From patent publication US20240239805A1, “AZA-YANG CYCLIZATION-BUCHNER AROMATIC RING EXPANSION: COLLECTIVE SYNTHESIS OF CYCLOHEPTATRIENE-CONTAINING AZETIDINE LACTONES” (University of Kansas, priority 2022, published 2024)

System: U-2 OS (ATCC, HTB-96) cells
Assay: Cell Painting: changes in cell morphology induced by synthesized compounds
Type: cell-based
Settings: U-2 OS cells, 24-hour treatment; for Determination of bioactives: reproducibility of fingerprints and magnitude of the activity: Cell Painting feature vectors vs DMSO, 3 repeats, FIG. 8; for Clustering of fingerprints (similarity of fingerprints) with known bioactives: Cell Painting, cosine similarity, FIG. 9
Protocol: U-2 OS (ATCC, HTB-96) cells were cultured in T-75 flasks (Greiner, 658170) under McCoy's 5a medium (HIMedia, AT057), supplemented with 10% fetal bovine serum (FBS) and 1% Penicillin/Streptomycin solution, and incubated at 37° C. in a 5% CO2 atmosphere. Upon reaching 80% confluence, cells were washed, trypsinized (0.25% solution with EDTA, VWR, M143), and removed. Flasks were reseeded with one-fifth of the cell count for each passage. All cell plates reported in this paper were composed of U-2 OS from incubation lengths of five or fewer passages. 384 Black-welled plates with optically clear bottoms (Corning, 6569) were seeded with U-2 OS at a density of 1,000 cells per well and cells were allowed to incubate for 24 h to ensure adherence.
Three compound plates (Thermo Scientific, AB-1056) were constructed using an initial aliquot of a 50 mM compound solution solubilized in DMSO. Each compound aliquot was then twofold serially diluted in DMSO to yield eight concentrations ranging from 50 mM to 390 μM. This process was repeated so that compound plate 1 contained each of the 16 test (cycloheptatriene) compounds and one azetidinol, compound plate 2 contained 19 esters, and compound plate 3 contained the diazo compounds. Vehicle treatments were included in the plate design as DMSO-containing wells (around 200) with no added compound. Staurosporine diluted to 500 μM in DMSO was included on the plate as a positive control to test the transfer of compounds from pin transfer.
After a 24 h incubation period, untreated cell-containing plates and the compound plate were each fitted into a Library Copier, and a sterile Multi-Blot Replicator (V and P Scientific) was used to transfer a 100 nL volume from each well of the 384 well compound plate into the culture media (50 μL) of a corresponding well on the 384 well cell plate. These cell plates were reintroduced to a 37° C., 5% CO2 atmosphere for the duration of the 24-hour treatment period.
1 L of Hank's Buffered Saline Solution (HBSS) (1× from 10×) was prepared using 100 mL HBSS (10×) and diluted with 900 mL deionized water. The pH of the solution was adjusted to 7.2 with aqueous NaOH and filtered through a 0.2-micron filter. A 1% w/v solution of BSA (VWR, 0332) was prepared in 1×HBSS using 150 mg BSA, dissolved in 15 mL HBSS. The solution was filtered through a 0.2-micron filter. Live-cell MitoTracker (Thermo Fisher, M22426) staining solution was prepared using 6.5 μL of MitoTracker staining solution from a stock of 1 mM MitoTracker and dissolved in 13 mL of pre-warmed cell culture medium (RPMI) for a final concentration of 500 nM.
Staining dyes: a. […]

Compound | Determination of bioactives: reproducibility of fingerprints and magnitude of the activity | Clustering of fingerprints (similarity of fingerprints) with known bioactives
CC(C)(C)OC(=O)n1cc(C23C=CC=CC=C2[C@@]2(CN4CCCC[C@H]42)OC3=O)c2ccccc21 (stereo partly shown) [Compound 1-1-3] | showed reproducible fingerprints and magnitude of the activity | –
CC(=O)O[C@H]1C(=O)[C@@]2(C)[C@H]([C@H](OC(=O)c3ccccc3)[C@]3(O)C[C@H](OC(=O)[C@H](O)[C@@H](NC(=O)c4ccccc4)c4ccccc4)C(C)=C1C3(C)C)[C@]1(OC(C)=O)CO[C@@H]1C[C@@H]2O [taxol] | – | cluster together
CC[C@]1(O)C[C@H]2CN(CCc3c([nH]c4ccccc34)[C@@](C(=O)OC)(c3cc4c(cc3OC)N(C=O)[C@H]3[C@@](O)(C(=O)OC)[C@H](OC(C)=O)[C@]5(CC)C=CCN6CC[C@]43[C@@H]65)C2)C1 [vincristine] | – | cluster together
O=C1O[C@]2(CN3CCCC[C@H]32)C2=CC=CC=C[C@@]12c1ccsc1 [Compound 1-1-4] | showed reproducible fingerprints and magnitude of the activity | –
